These are literature values, as cited in patent publication US20130316464A1, “ANALYTE […] AND METHOD” (priority 2010, published 2013).

For the data set, the system named is erythrocytes. As to conditions: whole blood.

For the molecule `CC(C)c1cccc(C(C)C)c1O` [propofol, 2,6-diisopropylphenol], the “proportion of the propofol partitioned into / bound to blood cells (erythrocytes)” value was 30-40%.
